In patent US9994547B2, “Heteroarylamide inhibitors of TBK1” (Takeda Pharmaceutical Company Limited, priority 2014, dated 2018):

Each compound was assayed against Full length human TBK1 (Homo sapiens (Human), UniProt Q9UHD2) (assay: Inhibition of TBK1 Enzyme (Example A)). Settings: -log(IC50), IC50 molar; 3 nM TBK1, 25 μM ATP, 60 min RT.
Type: biochemical
Summary of the method: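 Full-length N-His human TBK1 from Sf9 baculovirus was tested with 11-point 2.5-fold dilutions (1% DMSO) in Hepes pH 7.4, MgCl2, EDTA, Brij, DTT. After 60 min RT and EDTA quench, microfluidic conversion was fitted and reported as pIC50.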

Chain of Full length human TBK1 (Q9UHD2 whole entry): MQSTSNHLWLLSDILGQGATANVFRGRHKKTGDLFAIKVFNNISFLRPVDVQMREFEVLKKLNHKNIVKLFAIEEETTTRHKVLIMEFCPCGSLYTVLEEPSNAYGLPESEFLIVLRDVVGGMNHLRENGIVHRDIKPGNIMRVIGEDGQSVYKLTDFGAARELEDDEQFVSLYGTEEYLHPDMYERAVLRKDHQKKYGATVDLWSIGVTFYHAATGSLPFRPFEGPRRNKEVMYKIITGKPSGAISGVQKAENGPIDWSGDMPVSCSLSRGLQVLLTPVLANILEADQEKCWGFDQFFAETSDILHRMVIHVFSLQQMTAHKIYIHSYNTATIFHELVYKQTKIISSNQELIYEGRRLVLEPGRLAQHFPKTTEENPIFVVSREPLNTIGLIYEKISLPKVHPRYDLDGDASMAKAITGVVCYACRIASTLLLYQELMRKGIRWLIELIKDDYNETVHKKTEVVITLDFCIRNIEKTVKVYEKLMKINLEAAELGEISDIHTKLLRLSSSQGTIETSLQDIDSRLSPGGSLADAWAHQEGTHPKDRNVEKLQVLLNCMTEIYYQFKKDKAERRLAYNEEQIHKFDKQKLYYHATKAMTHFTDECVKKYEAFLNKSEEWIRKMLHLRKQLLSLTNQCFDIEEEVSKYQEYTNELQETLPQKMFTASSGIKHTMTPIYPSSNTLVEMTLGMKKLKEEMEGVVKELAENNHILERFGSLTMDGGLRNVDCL

| TBK1 Inhibition (pIC50) | SMILES |
| --- | --- |
| 7.6 | CN(CC(F)(F)F)C(=O)CNc1cc(-c2cnc(NC(=O)C3CC3)cn2)ccc1C#N [Example 126, N-(5-(4-cyano-3-((2-(methyl(2,2,2-trifluoroethyl)amino)-2-oxoethyl)amino)phenyl)pyrazin-2-yl)cyclopropanecarboxamide] |
| 7.0 | CC[C@H](Nc1cc(-c2cnc(NC(=O)C3CC3)cn2)ncc1C#N)C(=O)N(C)C [Example 127, (S)-N-(5-(5-cyano-4-((1-(dimethylamino)-1-oxobutan-2-yl)amino)pyridin-2-yl)pyrazin-2-yl)cyclopropanecarboxamide] |
| 7.1 | CN(C)C(=O)C(CO)Nc1cc(-c2cnc(NC(=O)C3CC3)cn2)cnc1C#N [Example 128, (S)-N-(5-(6-cyano-5-((1-(dimethylamino)-3-hydroxy-1-oxopropan-2-yl)amino)pyridin-3-yl)pyrazin-2-yl)cyclopropanecarboxamide] |
| 7.6 | C[C@H](Nc1cc(-c2cnc(NC(=O)C3CC3)cn2)cnc1C#N)C(=O)N(C)C [Example 129, (S)-N-(5-(6-cyano-5-((1-(dimethylamino)-1-oxopropan-2-yl)amino)pyridin-3-yl)pyrazin-2-yl)cyclopropanecarboxamide] |
| 7.1 | COCC[C@H](Nc1cc(-c2cnc(NC(=O)C3CC3)cn2)cnc1C#N)C(=O)N(C)C [Example 131, (S)-N-(5-(6-cyano-5-((1-(dimethylamino)-4-methoxy-1-oxobutan-2-yl)amino)pyridin-3-yl)pyrazin-2-yl)cyclopropanecarboxamide] |
| 6.2 | CC1(O)CCN(C(=O)CNc2cc(-c3cnc(NC(=O)C4CC4)cn3)ccc2C#N)C1 (stereo not shown) [Example 132, N-(5-(4-cyano-3-((2-(3-hydroxy-3-methylpyrrolidin-1-yl)-2-oxoethyl)amino)phenyl)pyrazin-2-yl)cyclopropanecarboxamide] |
| 7.3 | CC(CO)N(C)C(=O)CNc1cc(-c2cnc(NC(=O)C3CC3)cn2)ccc1C#N (stereo not shown) [Example 133, N-(5-(4-cyano-3-((2-((1-hydroxypropan-2-yl)(methyl)amino)-2-oxoethyl)amino)phenyl)pyrazin-2-yl)cyclopropanecarboxamide] |
| 6.9 | CC(O)CN(C)C(=O)CNc1cc(-c2cnc(NC(=O)C3CC3)cn2)ccc1C#N (stereo not shown) [Example 134, N-(5-(4-cyano-3-((2-((2-hydroxypropyl)(methyl)amino)-2-oxoethyl)amino)phenyl)pyrazin-2-yl)cyclopropanecarboxamide] |
| 7.6 | CN(C)C(=O)[C@H](CO)Nc1cc(-c2cnc(NC(=O)C3CC3)cn2)ccc1C#N [Example 136, (S)-N-(5-(4-cyano-3-((1-(dimethylamino)-3-hydroxy-1-oxopropan-2-yl)amino)phenyl)pyrazin-2-yl)cyclopropanecarboxamide] |
| 7.6 | C[C@H](Nc1cc(-c2cnc(NC(=O)C3CC3)cn2)cc(F)c1C#N)C(=O)N(C)C [Example 137, (S)-N-(5-(4-cyano-3-((1-(dimethylamino)-1-oxopropan-2-yl)amino)-5-fluorophenyl)pyrazin-2-yl)cyclopropanecarboxamide] |

The remaining lines, values behind:

| SMILES | TBK1 Inhibition (pIC50) |
| --- | --- |
| CN1CC(N(C)C(=O)CNc2cc(-c3cnc(NC(=O)C4CC4)cn3)cnc2C#N)C1 [Example 105, N-(5-(6-cyano-5-((2-(methyl(1-methylazetidin-3-yl)amino)-2-oxoethyl)amino)pyridin-3-yl)pyrazin-2-yl)cyclopropanecarboxamide] | 5.6 |
| C[C@H](Nc1cc(-c2cnc(NC(=O)[C@H]3C[C@@H]3C)cn2)cnc1C#N)C(=O)N(C)C [Example 106, (1S,2S)-N-(5-(6-cyano-5-(((S)-1-(dimethylamino)-1-oxopropan-2-yl)amino)pyridin-3-yl)pyrazin-2-yl)-2-methylcyclopropanecarboxamide] | 7.4 |
| C[C@H](Nc1cc(-c2cnc(NC(=O)[C@@H]3C[C@H]3C)cn2)cnc1C#N)C(=O)N(C)C [Example 107, (1R,2R)-N-(5-(6-cyano-5-(((S)-1-(dimethylamino)-1-oxopropan-2-yl)amino)pyridin-3-yl)pyrazin-2-yl)-2-methylcyclopropanecarboxamide] | 7.8 |
| C[C@H](Nc1cc(-c2cnc(NC(=O)[C@@H]3C[C@@H]3C)cn2)cnc1C#N)C(=O)N(C)C [Example 108, (1R,2S)-N-(5-(6-cyano-5-(((S)-1-(dimethylamino)-1-oxopropan-2-yl)amino)pyridin-3-yl)pyrazin-2-yl)-2-methylcyclopropanecarboxamide] | 7.7 |
| C[C@H](Nc1cc(-c2cnc(NC(=O)[C@H]3C[C@H]3C)cn2)cnc1C#N)C(=O)N(C)C [Example 109, (1S,2R)-N-(5-(6-cyano-5-(((S)-1-(dimethylamino)-1-oxopropan-2-yl)amino)pyridin-3-yl)pyrazin-2-yl)-2-methylcyclopropanecarboxamide] | 7.2 |
| CC(O)CN(CC(F)(F)F)C(=O)CNc1cc(-c2cnc(NC(=O)C3CC3)cn2)cnc1C#N (stereo not shown) [Example 110, N-(5-(6-cyano-5-((2-((2-hydroxypropyl)(2,2,2-trifluoroethyl)amino)-2-oxoethyl)amino)pyridin-3-yl)pyrazin-2-yl)cyclopropanecarboxamide] | 7.5 |
| CC(C)(O)CN(CC(F)(F)F)C(=O)CNc1cc(-c2cnc(NC(=O)C3CC3)cn2)cnc1C#N [Example 111, N-(5-(6-cyano-5-((2-((2-hydroxy-2-methylpropyl)(2,2,2-trifluoroethyl)amino)-2-oxoethyl)amino)pyridin-3-yl)pyrazin-2-yl)cyclopropanecarboxamide] | 6.6 |
| CCN(C)C(=O)[C@H](C)Nc1cc(-c2cnc(NC(=O)C3CC3)cn2)cnc1C#N [Example 112, (S)-N-(5-(6-cyano-5-((1-(ethyl(methyl)amino)-1-oxopropan-2-yl)amino)pyridin-3-yl)pyrazin-2-yl)cyclopropanecarboxamide] | 7.7 |
| N#Cc1ncc(-c2cnc(NC(=O)C3CC3)cn2)cc1NCC(=O)N1C[C@H](CO)C[C@H]1C(F)(F)F [Example 113, N-(5-(6-cyano-5-((2-((2S,4R)-4-(hydroxymethyl)-2-(trifluoromethyl)pyrrolidin-1-yl)-2-oxoethyl)amino)pyridin-3-yl)pyrazin-2-yl)cyclopropanecarboxamide] | 7.6 |
| C[C@H](Nc1cc(-c2cnc(NC(=O)C3CC3)cn2)cnc1C#N)C(=O)NCC(F)F [Example 114, (S)-N-(5-(6-cyano-5-((1-((2,2-difluoroethyl)amino)-1-oxopropan-2-yl)amino)pyridin-3-yl)pyrazin-2-yl)cyclopropanecarboxamide] | 7.7 |
| CN(C)C(=O)C(CCO)Nc1cc(-c2cnc(NC(=O)C3CC3)cn2)cnc1C#N (stereo not shown) [Example 115, N-(5-(6-cyano-5-((1-(dimethylamino)-4-hydroxy-1-oxobutan-2-yl)amino)pyridin-3-yl)pyrazin-2-yl)cyclopropanecarboxamide] | 6.9 |
| C[C@H](Nc1cc(-c2cnc(NC(=O)C3CC3)cn2)cnc1C#N)C(=O)NCC(F)(F)F [Example 116, (S)-N-(5-(6-cyano-5-((1-oxo-1-((2,2,2-trifluoroethyl)amino)propan-2-yl)amino)pyridin-3-yl)pyrazin-2-yl)cyclopropanecarboxamide] | 7.3 |
| C[C@H](Nc1cc(-c2cnc(NC(=O)C3CC3)cn2)cnc1C#N)C(=O)NCC(C)(F)F [Example 117, (S)-N-(5-(6-cyano-5-((1-((2,2-difluoropropyl)amino)-1-oxopropan-2-yl)amino)pyridin-3-yl)pyrazin-2-yl)cyclopropanecarboxamide] | 7.0 |
| C[C@H](Nc1cc(-c2cnc(NC(=O)C3CC3)cn2)cnc1C#N)C(=O)NC1CC1(F)F (stereo partly drawn) [Example 118, N-(5-(6-cyano-5-(((2S)-1-((2,2-difluorocyclopropyl)amino)-1-oxopropan-2-yl)amino)pyridin-3-yl)pyrazin-2-yl)cyclopropanecarboxamide] | 6.8 |
| CC(NC(=O)[C@H](C)Nc1cc(-c2cnc(NC(=O)C3CC3)cn2)cnc1C#N)C(F)F (stereo partly drawn) [Example 119, N-(5-(6-cyano-5-(((2S)-1-((1,1-difluoropropan-2-yl)amino)-1-oxopropan-2-yl)amino)pyridin-3-yl)pyrazin-2-yl)cyclopropanecarboxamide] | 8.1 |
| CC[C@H](Nc1cc(-c2cnc(NC(=O)C3CC3)cn2)cnc1C#N)C(=O)NCC(F)F [Example 120, (S)-N-(5-(6-cyano-5-((1-((2,2-difluoroethyl)amino)-1-oxobutan-2-yl)amino)pyridin-3-yl)pyrazin-2-yl)cyclopropanecarboxamide] | 7.2 |
| N#Cc1ncc(-c2cnc(NC(=O)C3CC3)cn2)cc1NCC(N)=O [Example 121, N-(5-(5-((2-amino-2-oxoethyl)amino)-6-cyanopyridin-3-yl)pyrazin-2-yl)cyclopropanecarboxamide] | 5.6 |
| CN(C)C(=O)CNc1cc(-c2cnc(NC(=O)C3CC3)cn2)cnc1C#N [Example 122, N-(5-(6-cyano-5-((2-(dimethylamino)-2-oxoethyl)amino)pyridin-3-yl)pyrazin-2-yl)cyclopropanecarboxamide] | 7.0 |
| CN(C)C(=O)CNc1cc(-c2cnc(NC(=O)C3CC3)cn2)ccc1C#N [Example 123, N-(5-(4-cyano-3-((2-(dimethylamino)-2-oxoethyl)amino)phenyl)pyrazin-2-yl)cyclopropanecarboxamide] | 7.2 |
| CCNC(=O)CNc1cc(-c2cnc(NC(=O)C3CC3)cn2)ccc1C#N [Example 124, N-(5-(4-cyano-3-((2-(ethylamino)-2-oxoethyl)amino)phenyl)pyrazin-2-yl)cyclopropanecarboxamide] | 6.5 |
| N#Cc1ccc(-c2cnc(NC(=O)C3CC3)cn2)cc1NCC(=O)N1CCCC1 [Example 125, N-(5-(4-cyano-3-((2-oxo-2-(pyrrolidin-1-yl)ethyl)amino)phenyl)pyrazin-2-yl)cyclopropanecarboxamide] | 7.3 |
